Measurements from patent US6608174B1, “Radiolabeled vasoactive intestinal peptide analogs for diagnosis and radiotherapy” (Dabur Research Foundation, priority 2000, dated 2003).
Where two headings read alike, the source gives them in different places. Square brackets hold non-standard residues; d marks the D form. Ends that are not written are not given here. dPhe(4-Cl) = N[C@H](Cc1ccc(Cl)cc1)C(=O)O; Aib = CC(C)(N)C(=O)O

Tests used:
VIP receptors = assay: Receptor binding and competition assay with 125I labeled peptide (SEQ ID NO:2) on human tumor cell lines; details: for Kd: 4-8° C.
Procedure: In the practice of these methods, the peptide was radioiodinated using the iodogen method. Briefly, 5 μg of the peptide in 10 μl of 50 mM PBS (pH 7.5), an appropriate amount of the radioisotope and 50 μg-100 μg iodogen were incubated at room temperature for 15-30 min with occasional mixing. Radioiodinated peptide was purified from unincorporated radioactive iodine by purification on a Sep Pak C18 cartridge, essentially following the same procedure as described for technetium labeling. Receptor binding and competition assays were performed at 4-8° C. Briefly, 50,000 cells were plated per well of a 24 well plate and allowed to adhere overnight. Before the assay, the cells were washed twice with ice cold binding buffer (25 mM HEPES, 10 mM MgCl2 and 1% BSA in RPMI 1640 medium). The cells were incubated for 2-3 hrs with an appropriate concentration (0.1-10 nM) of the ^125I labeled peptide (SEQ ID NO:2), in the presence and absence of the cold ligand, which is the uniodinated form of the same peptide (1 nM-10 μM). After incubation, the cells were washed thrice with the binding buffer to remove the unbound peptide. The cells were lysed and counts were measured in a Gamma counter. From a comparison of the extent of binding in the presence or absence of the unlabeled peptide (SEQ ID NO:2), the dissociation constant (Kd) (TABLE I) and maximal binding (Bmax) (TABLE II) were calculated for the peptide. […] These characteristics are similar to what has been previously reported for VIP receptors. The following tumor cell lines were assayed using the above described binding competition assay: HT29 (human colorectal adenocarcinoma); PTC (human primary tumor cells adenocarcinoma); KB (human squamous cell carcinoma); 4451 (human squamous cell carcinoma); L132 (human lung carcinoma); A549 (human lung carcinoma); HBL100 (human breast carcinoma) and PA1 (human ovarian carcinoma). Cells were grown in RPMI 1640 supplemented with 10% fetal calf serum, glutamine and antibiotics using standard cell culture techniques (see Animal Cell Culture: A Practical Approach, Freshney, ed, IRL press: Oxford, UK, 1992).

[1] = molecular target: VIP receptors on human tumor cell lines (human); assay: displacement of 125I labeled VIP on KB cells
[2] = molecular target: VIP receptors on human tumor cell lines (human); assay: displacement of 125I labeled VIP on PTC cells
[3] = molecular target: high affinity (nM range), low surface expression receptor on human tumor cells (VIP receptor) (human); assay: maximal binding, 125I-SEQ ID NO:2 on PTC cells
[4] = molecular target: low affinity (µM range), high surface expression receptor on human tumor cells (VIP receptor) (human); assay: maximal binding, 125I-SEQ ID NO:2 on PTC cells
[5] = molecular target: VIP receptors on human tumor cell lines (human); assay: displacement of 125I labeled VIP on HT29 cells
[6] = molecular target: high affinity (nM range), low surface expression receptor on human tumor cells (VIP receptor) (human); assay: maximal binding, 125I-SEQ ID NO:2 on 4451 cells
[7] = molecular target: low affinity (µM range), high surface expression receptor on human tumor cells (VIP receptor) (human); assay: maximal binding, 125I-SEQ ID NO:2 on 4451 cells
[8] = molecular target: high affinity (nM range), low surface expression receptor on human tumor cells (VIP receptor) (human); assay: maximal binding, 125I-SEQ ID NO:2 on HT29 cells
[9] = molecular target: low affinity (µM range), high surface expression receptor on human tumor cells (VIP receptor) (human); assay: maximal binding, 125I-SEQ ID NO:2 on HT29 cells
[10] = molecular target: VIP receptors on human tumor cell lines (human); assay: displacement of 125I labeled VIP on HBL 100 cells
[11] = molecular target: high affinity (nM range), low surface expression receptor on human tumor cells (VIP receptor) (human); assay: maximal binding, 125I-SEQ ID NO:2 on PA1 cells (printed PAI)
[12] = molecular target: low affinity (µM range), high surface expression receptor on human tumor cells (VIP receptor) (human); assay: as above
[13] = molecular target: VIP receptors on human tumor cell lines (human); assay: displacement of 125I labeled VIP (10-28) fragment on PTC cells
[14] = molecular target: VIP receptors on human tumor cell lines (human); assay: displacement of 125I labeled VIP (10-28) fragment on HT29 cells
[15] = molecular target: VIP receptors on human tumor cell lines (human); assay: displacement of 125I labeled VIP (10-28) fragment on L132 cells
[16] = molecular target: high affinity (nM range), low surface expression receptor on human tumor cells (VIP receptor) (human); assay: homologous radioligand competition, 125I-SEQ ID NO:2 on 4451 cells
[17] = molecular target: low affinity (µM range), high surface expression receptor on human tumor cells (VIP receptor) (human); assay: as above
[18] = molecular target: high affinity (nM range), low surface expression receptor on human tumor cells (VIP receptor) (human); assay: homologous radioligand competition, 125I-SEQ ID NO:2 on A549 cells
[19] = molecular target: low affinity (µM range), high surface expression receptor on human tumor cells (VIP receptor) (human); assay: as above
[20] = molecular target: high affinity (nM range), low surface expression receptor on human tumor cells (VIP receptor) (human); assay: homologous radioligand competition, 125I-SEQ ID NO:2 on HT29 cells

His-Ser-Asp-Aib-Val-4-Cl-D-Phe-Thr-Asp-Asn-Tyr-Thr-Arg-Leu-Arg-Lys-Gln-Leu-Ala-Val-Lys-Lys-Tyr-Leu-Asn-Ser-Ile-Leu-Asn-NH2 (HSD[Aib]V[dPhe(4-Cl)]TDNYTRLRKQLAVKKYLNSILN-NH2; N-terminus assumed; SMILES CC[C@H](C)[C@H](NC(=O)[C@H](CO)NC(=O)[C@H](CC(N)=O)NC(=O)[C@H](CC(C)C)NC(=O)[C@H](Cc1ccc(O)cc1)NC(=O)[C@H](CCCCN)NC(=O)[C@H](CCCCN)NC(=O)[C@@H](NC(=O)[C@H](C)NC(=O)[C@H](CC(C)C)NC(=O)[C@H](CCC(N)=O)NC(=O)[C@H](CCCCN)NC(=O)[C@H](CCCNC(=N)N)NC(=O)[C@H](CC(C)C)NC(=O)[C@H](CCCNC(=N)N)NC(=O)[C@@H](NC(=O)[C@H](Cc1ccc(O)cc1)NC(=O)[C@H](CC(N)=O)NC(=O)[C@H](CC(=O)O)NC(=O)[C@@H](NC(=O)[C@@H](Cc1ccc(Cl)cc1)NC(=O)[C@@H](NC(=O)C(C)(C)NC(=O)[C@H](CC(=O)O)NC(=O)[C@H](CO)NC(=O)[C@@H](N)Cc1c[nH]cn1)C(C)C)[C@@H](C)O)[C@@H](C)O)C(C)C)C(=O)N[C@@H](CC(C)C)C(=O)N[C@@H](CC(N)=O)C(N)=O) [SEQ ID NO:2, VIP receptor antagonist, preferred peptide (Xxx = Aib)]
Bmax1 (maximal binding) (VIP receptors; 4451 cells, high affinity receptor): 579 pM | Kd (VIP receptors; 4451 cells, high affinity receptor, read-out: Kd1): 4.48 nM | Bmax2 (maximal binding) (VIP receptors; 4451 cells, low affinity receptor): 51 nM | Kd (VIP receptors; 4451 cells, low affinity receptor, read-out: Kd2): 1910 nM | Bmax1 (maximal binding) (VIP receptors; A549 cells, high affinity receptor): 540 pM | Kd (VIP receptors; A549 cells, high affinity receptor, read-out: Kd1): 2.09 nM | Bmax2 (maximal binding) (VIP receptors; A549 cells, low affinity receptor): 48.3 nM | Kd (VIP receptors; A549 cells, low affinity receptor, read-out: Kd2): 1530 nM | Bmax1 (maximal binding) (VIP receptors; HBL 100 cells, high affinity receptor): 697 pM | Kd (VIP receptors; HBL 100 cells, high affinity receptor, read-out: Kd1): 2.13 nM | Bmax2 (maximal binding) (VIP receptors; HBL 100 cells, low affinity receptor): 69.1 nM | Kd (VIP receptors; HBL 100 cells, low affinity receptor, read-out: Kd2): 1600 nM | Bmax1 (maximal binding) (VIP receptors; HT29 cells, high affinity receptor): 367 pM | Kd (VIP receptors; HT29 cells, high affinity receptor, read-out: Kd1): 3.8 nM | Bmax2 (maximal binding) (VIP receptors; HT29 cells, low affinity receptor): 67.2 nM | Kd (VIP receptors; HT29 cells, low affinity receptor, read-out: Kd2): 1370 nM | Bmax1 (maximal binding) (VIP receptors; KB cells, high affinity receptor): 602 pM | Kd (VIP receptors; KB cells, high affinity receptor, read-out: Kd1): 4.2 nM | Bmax2 (maximal binding) (VIP receptors; KB cells, low affinity receptor): 42.9 nM | Kd (VIP receptors; KB cells, low affinity receptor, read-out: Kd2): 1840 nM | Bmax1 (maximal binding) (VIP receptors; L132 cells, high affinity receptor): 306 pM | Kd (VIP receptors; L132 cells, high affinity receptor, read-out: Kd1): 2.6 nM | Bmax2 (maximal binding) (VIP receptors; L132 cells, low affinity receptor): 45.8 nM | Kd (VIP receptors; L132 cells, low affinity receptor, read-out: Kd2): 1030 nM | Kd (VIP receptors; PA1 cells, high affinity receptor, read-out: Kd1): 5.6 nM | Kd (VIP receptors; PA1 cells, low affinity receptor, read-out: Kd2): 1890 nM | Bmax1 (maximal binding) (VIP receptors; PAI cells, high affinity receptor): 529 pM | Bmax2 (maximal binding) (VIP receptors; PAI cells, low affinity receptor): 47.7 nM | Bmax1 (maximal binding) (VIP receptors; PTC cells, high affinity receptor): 830 pM | Kd (VIP receptors; PTC cells, high affinity receptor, read-out: Kd1): 1.77 nM | Bmax2 (maximal binding) (VIP receptors; PTC cells, low affinity receptor): 96.6 nM | Kd (VIP receptors; PTC cells, low affinity receptor, read-out: Kd2): 1180 nM | kinds of receptors bound on the cell surface (VIP receptors; one high affinity (nM range), low expression, one low affinity, high expression): bound to two kinds of receptors on the cell surface

HSD[Aib]V[dPhe(4-Cl)]TDNYTRLRKQLAVKKYLNSILN-NH2 (also: 125I-labelled form (iodogen) used as tracer)
IC50 [1]: 6.2 nM | IC50 [2]: 2.53 nM | Bmax1 [3]: 830 pM | Bmax2 [4]: 96.6 nM | IC50 [5]: 2.78 nM | Bmax1 [6]: 579 pM | Bmax2 [7]: 51 nM | Bmax1 [8]: 367 pM | Bmax2 [9]: 67.2 nM | IC50 [10]: 5.41 nM | Bmax1 [11]: 529 pM | Bmax2 [12]: 47.7 nM | IC50 [13]: 0.132 nM | IC50 [14]: 0.22 nM | IC50 [15]: 0.228 nM | Kd [16]: 4.48 nM | Kd [17]: 1910 nM | Kd [18]: 2.09 nM | Kd [19]: 1530 nM | Kd [20]: 3.8 nM
